Source: US8846704B2, “Thiopyrimidine-based compounds and uses thereof” (YM Biosciences Austraila Pty Ltd, priority 2007, dated 2014)

What was measured:
BaF3 wild-type cells = assay: Cellular screening, BaF3 wild-type cells, Alamar Blue; assay type: cell-based; conditions: Mus musculus, 40 hr, read-out: BAF3wt IC50_nM
Protocol: For screening purposes, compounds were diluted in 96 well plates at a concentration of 20 μM. Plates were warmed at 37° C. for 30 minutes before the assay was performed.
The growth factor dependant myelomonocytic cell line BaF3 bearing the pTET-off plasmid (Clontech) was transfected with either pTELJAK2 or pTELJAK3, and the transfected cells were selected for growth-factor independent cell growth. The BaF3 wild-type cells were cultured in DMEM containing 10% FCS, 10% WEHI 3B conditioned medium. The BaF3 TELJAK cells ([…]) were cultured in DMEM 10% Tet-System Approved FBS (without WEHI 3B conditioned medium).
(§1) Cell suspensions were prepared by harvesting cells from culture (the cells used in this test were in late log phase growth with high viability.) Cells were diluted in the appropriate growth medium, as described above, to 1.1× final concentration (from 50,000 cell/mL to 200,000 cell/mL, depending on cell line).
(§2) Compounds to be tested were added (10 μL, 10× final concentration) to a flat bottomed 96-well plate. The cellular suspension (90 μL per well) was then added, and the plate incubated for 40 hr at 37° C., 5% CO2. Alamar Blue 10 μL per well was added and the plates returned to the incubator for a further 4-6 hours. The plates were then read at 544 nm.

human JAK3 = target: T1, human JAK3 (Homo sapiens, UniProt P52333); assay: Alphascreen tyrosine kinase enzyme assay, JAK3 kinase domain; assay type: biochemical; conditions: read-out: JAK3 IC50_nM
T1 construct: The kinase domain of human JAK3 was amplified; GST (N); made in house; host or cells: Sf9 insect cells (baculovirus)
T1 sequence (P52333 822-1111 limits assumed): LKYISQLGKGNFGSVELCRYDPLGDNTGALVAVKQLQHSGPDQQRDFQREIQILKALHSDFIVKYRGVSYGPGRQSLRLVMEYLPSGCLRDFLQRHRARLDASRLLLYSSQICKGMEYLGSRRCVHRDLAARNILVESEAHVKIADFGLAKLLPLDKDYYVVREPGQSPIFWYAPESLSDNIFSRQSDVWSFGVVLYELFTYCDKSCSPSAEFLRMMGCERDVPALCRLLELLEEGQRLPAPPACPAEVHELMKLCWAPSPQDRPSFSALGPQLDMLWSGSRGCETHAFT
Summary of the method: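 GST-affinity-purified human JAK3 kinase domain (baculovirus/Sf9) was pre-incubated 20 min with compound ([…]) in HEPES pH 7.5 buffer with MgCl2, vanadate and Tween 20. Biotinylated peptide substrate ([…]) and ATP were then added; phosphotyrosine was detected by AlphaScreen PY100 acceptor and streptavidin donor beads after 2–3 h.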

human JAK1 = target: T2, human JAK1 (Homo sapiens, UniProt P23458); assay: Alphascreen tyrosine kinase enzyme assay, JAK1 kinase domain; assay type: biochemical; conditions: read-out: JAK1 IC50_nM
T2 construct: The kinase domain of human JAK1 was amplified; GST (N); made in house; host or cells: Sf9 insect cells (baculovirus)
T2 sequence (P23458 875-1153 limits assumed): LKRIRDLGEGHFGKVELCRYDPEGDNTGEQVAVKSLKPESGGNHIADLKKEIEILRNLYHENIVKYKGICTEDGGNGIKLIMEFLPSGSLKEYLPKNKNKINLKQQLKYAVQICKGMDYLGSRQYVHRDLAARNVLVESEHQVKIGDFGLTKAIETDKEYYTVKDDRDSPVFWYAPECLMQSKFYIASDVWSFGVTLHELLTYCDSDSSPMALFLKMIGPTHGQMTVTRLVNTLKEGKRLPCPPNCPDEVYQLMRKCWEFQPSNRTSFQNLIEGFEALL
Protocol: For screening purposes, compounds (in 100% DMSO) were warmed at 37 degrees for at least 20 minutes before use. A […] stock was initially made in assay buffer, where the final concentration of DMSO was 0.3%. The stocks were then diluted in 384 well Optiplates (Packard) where the final concentration of the compound was […].
The kinase domain of human JAK1 was amplified from U937mRNA using the polymerase chain reaction with the following primers: […]
The JAK1 PCR products were cloned into the pDest20 destination vector (Gibco). The JAK1 plasmid was then transformed into competent DH10Bac cells (Gibco), and the recombinant baculovirus was prepared via Sf9 insect cell transfection.
Baculovirus preparations from each of the constructs were infected into either one or five liters of Sf9 cells (Invitrogen) grown in SF-900 medium (Invitrogen) to a cell density of approximately 1-2×10^6 cells/ml. Cells were infected with virus at a MOI of 0.8-3.0. Cells were harvested and lysed. Tyrosine kinase domains were purified by affinity chromatography on a glutathione-agarose column (Scientifix Pty. Ltd. catalog #: GSH-200).
Kinase assays were performed in 384 well Optiplates (Packard) using an Alphascreen Protein Tyrosine Kinase PY100 detection kit The compounds were pre-incubated with affinity purified PTK domain in the presence of phosphotyrosine assay buffer (10 mM HEPES, pH 7.5, 100 mM MgCl2, 25 mM NaCl, […] and 0.1% Tween 20) for 20 minutes. The compounds were then incubated with substrate in the presence of ATP. The substrate used was susbtrate-1 with the sequence biotin-EGPWLEEEEEAYGWMDF-NH2 [SEQ. ID. NO. 13] (final concentration […]). For HCK 80 μm ATP was used and incubated for 60 minutes. Alphascreen phosphotyrosine acceptor beads followed by streptavidin donor beads at a concentration of 1/100 in stop buffer were added to each well under subdued light and incubated for 2-3 hours., The Alphascreen plates were read on a Packard Fusion Alpha instrument.

CTLL2 = assay: Cellular screening, CTLL2 cells, Alamar Blue; assay type: cell-based; conditions: Mus musculus, CTLL-2, read-out: CTLL2 IC50_nM
Protocol: as §1, §2

human JAK2 = target: T3, human JAK2 (Homo sapiens, UniProt O60674); assay: Alphascreen tyrosine kinase enzyme assay, JAK2 kinase domain; assay type: biochemical; conditions: read-out: JAK2 IC50_nM
T3 construct: The kinase domain of human JAK2 was amplified; GST (N); made in house; host or cells: Sf9 insect cells (baculovirus)
T3 sequence (O60674 849-1124 limits assumed): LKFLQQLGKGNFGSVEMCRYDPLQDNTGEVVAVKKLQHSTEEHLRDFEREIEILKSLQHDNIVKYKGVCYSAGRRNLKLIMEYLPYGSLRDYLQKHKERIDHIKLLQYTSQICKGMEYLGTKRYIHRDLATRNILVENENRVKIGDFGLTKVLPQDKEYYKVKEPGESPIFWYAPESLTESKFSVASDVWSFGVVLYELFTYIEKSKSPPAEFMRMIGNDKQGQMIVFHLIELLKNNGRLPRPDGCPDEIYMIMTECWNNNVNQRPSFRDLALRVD
Summary of the method: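 JAK2 kinase domain expressed in baculovirus/Sf9 and glutathione-affinity purified. Compounds (final […]) pre-incubated 20 min with enzyme in 10 mM HEPES pH 7.5, MgCl2, NaCl, vanadate, 0.1% Tween 20.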

SMILES	IC50 (BaF3 wild-type cells) [nM]	IC50 (human JAK3) [nM]	IC50 (human JAK1) [nM]	IC50 (CTLL2) [nM]	IC50 (human JAK2) [nM]
C=CC(=O)Nc1cccc(Nc2nccc(Sc3ccccn3)n2)c1 [Compound 2, N-(3-(4-(pyridin-2-ylthio)pyrimidin-2-ylamino)phenyl)acrylamide]	< 5000	< 100	> 1000	< 5000	> 1000
C=CC(=O)Nc1cccc(Sc2ccnc(Nc3ccc(N4CCOCC4)cc3)n2)c1 [Compound 23, N-(3-(2-(4-morpholinophenylamino)pyrimidin-4-ylthio)phenyl)acrylamide]	< 20000	< 100	> 1000	< 1000	> 1000
N#CCC(=O)Nc1cccc(Sc2ccnc(Nc3ccc(N4CCOCC4)cc3)n2)c1 [Compound 24, N-(3-(2-(4-morpholinophenylamino)pyrimidin-4-ylthio)phenyl)-2-cyanoacetamide]	< 20000		> 1000	< 20000	< 500
C=CC(=O)Nc1ccc(Sc2ccnc(Nc3ccc(N4CCOCC4)cc3)n2)cc1 [Compound 25, N-(4-(2-(4-morpholinophenylamino)pyrimidin-4-ylthio)phenyl)acrylamide]	> 20000	< 100	> 1000	< 1000	> 1000
Nc1ccc(Sc2ccnc(Nc3ccc(N4CCOCC4)cc3)n2)cc1 [Compound 27, 4-(4-aophenylthio)-N-(4-morpholinophenyl)pyrimidin-2-ae]	< 20000	< 1000	< 1000	< 5000	< 500
C=CC(=O)Nc1cccc(Nc2nccc(Sc3ccc(OC)cc3)n2)c1 [Compound 42, N-(3-(4-(4-methoxyphenylthio)pyrimidin-2-ylao)phenyl)acrylamide]	< 20000	< 100	> 1000	< 5000	> 1000
OCc1cccc(Sc2ccnc(Nc3ccc(N4CCOCC4)cc3)n2)c1 [Compound 62, (3-(2-(4-Morpholinophenylamino)pyrimidin-4-ylthio)phenyl)methanol]	< 20000	< 500	> 1000	< 20000	< 500
OCc1ccc(Sc2ccnc(Nc3ccc(N4CCOCC4)cc3)n2)cc1 [Compound 67, (4-(2-(4-morpholinophenylao)pyrimidin-4-ylthio)phenyl)methanol]	< 20000	< 500	< 1000	< 20000	< 500
N#CCNCc1cccc(Sc2ccnc(Nc3ccc(N4CCOCC4)cc3)n2)c1 [Compound 68, 2-(3-(2-(4-morpholinophenylao)pyrimidin-4-ylthio)benzylao)acetonitrile]	> 20000	< 500	< 1000	> 20000	< 100
NCc1cccc(Sc2ccnc(Nc3ccc(N4CCOCC4)cc3)n2)c1 [Compound 75, 4-(3-(aomethyl)phenylthio)-N-(4-morpholinophenyl)pyrimidin-2-ae]	< 20000	< 500	< 500	< 20000	< 1000
C=CC(=O)Nc1ccc(Sc2ccnc(Nc3cccc(N4CCOCC4)c3)n2)cc1 [Compound 77, N-(4-(2-(3-morpholinophenylao)pyrimidin-4-ylthio)phenyl)acrylamide]	< 5000	< 100	> 1000	< 1000	> 1000
C=CC(=O)Nc1ccc(Sc2ccnc(Nc3cc(C)cc(C)c3)n2)cc1 [Compound 82, N-(4-(2-(3,5-dimethylphenylao)pyrimidin-4-ylthio)phenyl)acrylamide]	< 20000	< 100	> 1000	< 20000	> 1000
c1cc(Sc2ccc(Cn3cnnn3)cc2)nc(Nc2ccc(N3CCOCC3)cc2)n1 [Compound 109, 4-(4-((1H-tetrazol-1-yl)methyl)phenylthio)-N-(4-morpholinophenyl)pyrimidin-2-ae]	< 20000	< 500	> 1000	> 20000	< 1000
C=CC(=O)Nc1cccc(Sc2ccnc(Nc3cccc(N4CCOCC4)c3)n2)c1 [Compound 110, N-(3-(2-(3-morpholinophenylao)pyrimidin-4-ylthio)phenyl)acrylamide]	< 20000	< 100	> 1000	< 5000	> 1000
C=CC(=O)NCc1ccc(Sc2ccnc(Nc3ccc(N4CCOCC4)cc3)n2)cc1 [Compound 111, N-(4-(2-(4-morpholinophenylamino)pyrimidin-4-ylthio)benzyl)acrylamide]	< 20000	< 100	> 1000	< 5000	> 1000
C=CC(=O)NCc1cccc(Sc2ccnc(Nc3ccc(N4CCOCC4)cc3)n2)c1 [Compound 112, N-(3-(2-(4-morpholinophenylamino)pyrimidin-4-ylthio)benzyl)acrylamide]	> 20000	< 100	> 1000	< 20000	> 1000
C=CC(=O)Nc1ccc(Sc2ccnc(Nc3ccc(N4CCOCC4)cc3)n2)cc1OC [Compound 123, N-(2-methoxy-4-(2-(4-morpholinophenylao)pyrimidin-4-ylthio)phenyl)acrylamide]	< 5000	< 100	> 1000	< 20000	> 1000
N#Cc1nnnn1Cc1ccc(Sc2ccnc(Nc3ccc(N4CCOCC4)cc3)n2)cc1 [Compound 155, 1-(4-(2-(4-morpholinophenylao)pyrimidin-4-ylthio)benzyl)-1H-tetrazole-5-carbonitrile]	< 20000	< 100	> 1000	< 5000	> 1000
N#Cc1nnn(Cc2ccc(Sc3ccnc(Nc4ccc(N5CCOCC5)cc4)n3)cc2)n1 [Compound 156, 2-(4-(2-(4-morpholinophenylao)pyrimidin-4-ylthio)benzyl)-2H-tetrazole-5-carbonitrile]	< 5000	< 100	> 1000	< 5000	> 1000
C=CC(=O)Nc1ccc(Sc2nc(Nc3ccc(C4CCN(C)CC4)cc3)ncc2C)cc1 [Compound 246, N-(4-(5-methyl-2-(4-(1-methylpiperidin-4-yl)phenylao)pyrimidin-4-ylthio)phenyl)acrylamide]		< 100	> 1000		> 1000
C=CC(=O)Nc1ccc(Sc2ccnc(Nc3cccc(O)c3)n2)cc1 [Compound 277, N-(4-(2-(3-hydroxyphenylao)pyrimidin-4-ylthio)phenyl)acrylamide]	> 20000	< 100		< 1000	> 1000
